Reference: patent publication US20110301192A1, “Inhibitors of Cyclin Kinase Inhibitor p21” (The regents of the University of California, priority 2008, published 2011)
“Also recorded” adds a separate entry of the source.

Columns and labels:
[1] = test system: kidney cancer cell lines; assay: MTT cytotoxic assay in kidney cancer cell lines (FIG. 8); assay type: cell-based; conditions: kidney cancer cells; 1, 10 or 20 μM in complete media; 48 hr
Experimental: The kidney cancer cells were incubated in serum-free media for 16 hr and treated with vehicle (DMSO) and serum-containing complete media (CM) alone or the indicated compounds (at 1, 10 or 20 μM) in CM. After 48 hr, the MTT assay was performed as described below. The visible absorbance of each well was quantified using a microplate reader.
(§1) A 200 μL aliquot of cells (1×10^3 cells in quiescent media) was added to a 96 well plate and incubated for 18 hr at 37° C. in a humidified incubator containing 5% CO2 in air. After incubation, each condition of small molecule ligands (No. 4, 7, and 10) was added into each well for 48 hr and for synergic assay of Doxorubicin, after incubation for 6 hr with compound No. 10, Doxorubicin dissolved in DMSO was added to each of the 96 wells and incubated for 42 hr. Control cultures were treated with DMSO. After incubation, a 20 μL MTT solution (5 mg/mL in phosphate buffer) was added to each well and the incubation continued for 4 hr, after which time the solution in each well was carefully removed. The blue crystalline precipitate in each well was dissolved in DMSO 200 μL). The visible absorbance at 560 nm of each well was quantified using a microplate reader.

[2] = test system: ACHN and A-498 cells; assay: MTT synergy assay with doxorubicin; assay type: cell-based, human; conditions: 100 μM, after 6 h doxorubicin 0.1 and 0.25 μM for 42 h
Experimental: (§2) After 6 h, doxorubicin was added (0.1 and 0.25 μM) in serum containing media followed in 42 h by (a) the MTT assay as described below; and (b) immunoblotting with PARP, p21, and β-actin.
as §1

[3] = biological target: T1, p21 (Homo sapiens, UniProt P38936); assay: p21 ubiquitinylation (immunoprecipitation with p21 antibody, ubiquitin immunoblot); assay type: cell-based; conditions: ACHN and A-498 cells; 100 μM
Experimental: ACHN and A-498 cells were incubated in serum-free media for 16 hr and treated or not treated with compound 10 (100 μM) for the indicated times. Cells were harvested and immunoprecipitated with p21 antibody-agarose conjugate and immuno-blotted with either p21 or ubiquitin. Ponceau-staining heavy chain of anti-p21-IgG was performed on the same lysate as loading control.
(§3) Chemiluminescence was detected using enhanced ECL.

[4] = test system: p57; assay: Immunoblotting of p57 protein levels in RCC cells; assay type: cell-based, human; conditions: all concentrations examined (10, 50, 100 μM); immunoblot
Source text: as §3

[5] = biological target: T1, p21; assay: Immunoblotting of p21 protein levels in RCC cells; assay type: cell-based; conditions: serum-starved ACHN and A-498 cells; 10, 50 and 100 μM; immunoblot
Source text: as §3

[6] = test system: p27; assay: Immunoblotting of p27 protein levels in RCC cells; assay type: cell-based, human; conditions: all concentrations examined (10, 50, 100 μM); immunoblot
Source text: as §3

[7] = biological target: T2, GST-tagged p21 recombinant protein (GST-p21) (Homo sapiens, UniProt P38936); assay: Two-step OBOC bead screening with recombinant GST-p21; assay type: binding; conditions: OBOC beads, GST-p21 probe, GST-alone subtraction
T2 construct: purchased ProSpec-Tany TechnoGene Ltd. (Rehovot, Israel)
Experimental: OBOC beads tethered with small molecule ligands were incubated with recombinant GST-p21 (or GST alone as control) and incubated with anti-GST antibodies conjugated with alkaline phosphatase. Blue beads in stage 2 were discarded and the true positive beads (i.e., clear beads in stage 2 which indicate binding only to p21) were picked up and submitted for MS decoding.
A two-step screening of the small molecule OBOC combinatorial library was performed using GST-tagged p21 recombinant protein (GST-p21) from ProSpec-Tany TechnoGene Ltd. (Rehovot, Israel) (FIG. 2). Screening was conducted in small disposable chromatography columns. Each screening used 25,000-30,000 beads that were first blocked with 0.1% BSA in PBS with 0.1% Tween 20 (PBST). In Stage 1 of the procedure, the beads were incubated with a 1:10,000 dilution of GST-p21, washed, incubated with anti-GST antibody conjugated with alkaline phosphatase (anti-GST-AP), washed, and incubated with the phosphatase substrate 5-bromo-4-chloro-3-indolyl-phosphate (BCIP). Beads became blue and were selected for next step. Stage 2 of the procedure was to remove the false positive beads that are interacting with GST and anti-GST-AP not p21. The beads from Stage 1 were incubated with 8 M guanidine-HCl for removing bound proteins and DMF for removing blue color followed by PBST washing and re-blocking with PBST. And then the beads were incubated with GST alone, washed, incubated with anti-GST-AP, washed, and incubated with the phosphatase substrate BCIP. From this step, the clear beads were considered true positive beads, therefore they were selected and deproteinated with 8 M guanidine-HCl prior to decoding with mass spectrometry.

[8] = test system: ACHN and A-498 cells; assay: Apoptosis (PARP immunoblot) in combination with doxorubicin; assay type: cell-based, human; conditions: 100 μM, after 6 h doxorubicin 0.1 and 0.25 μM for 42 h
Experimental: as §2, §3

[9] = test system: ACHN and A-498 cells; assay: Apoptosis by PARP cleavage (immunoblot) in RCC cells; conditions: up to 72 h
Experimental: Cells were harvested and immunoblotted with p57, p27, and p21. […] Cells were harvested and immunoblotted with PARP and p21. β-actin is a gel-loading control.
Cells were washed with PBS and lysed in lysis buffer (50 mM HEPES, 1% Triton X-100, 10 mM sodium pyrophosphate, 100 mM sodium fluoride, 4 mM EDTA) at 0° C. Cell lysates were centrifuged (13,000×g, 4° C., 20 min) and the supernatants were electrophoresed and immunoblotted. For immunoprecipitation, cell lysates were incubated with p21 antibody agarose-conjugate overnight at 4° C. and immunoprecipitates were washed five times with lysis buffer. The bound proteins were eluted with SDS sample buffer and elctophoresed and immnoblotted. The membranes were blocked in 5% non-fat dry milk for 1 hr at room temperature, and probed with appropriate antibodies. Membranes were then probed with HRP-tagged anti-mouse or anti-rabbit IgG antibodies diluted 1:5,000-1:15,000 in 5% non-fat dry milk for 1 hr at room temperature. Chemiluminescence was detected using enhanced ECL.

[10] = test system: ACHN and A-498 cells; assay: MTT cytotoxic assay (cell viability) in RCC cell lines; assay type: cell-based, human; conditions: 10, 50 and 100 μM in complete media, 48 hr
Experimental: After 48 hr, the MTT assay was performed as described below. The visible absorbance of each well was quantified using a microplate reader.
ACHN and A498 human RCC cells (from ATCC) were maintained in MEM 1× media supplemented with 10% fetal bovine serum, 2 mM L-glutamine, 1 mM sodium pyruvate, 0.1 mM non-essential amino acid, and 0.75% sodium bicarbonate at 37° C. in a humidified incubator containing 5% CO2 in air.
as §1

[11] = biological target: T1, p21; assay: p21 stability with cycloheximide or proteasome inhibitors (immunoblot); assay type: cell-based; conditions: ACHN and A-498 cells; 100 μM; with cycloheximide 10 μg/ml or proteasome inhibitors (lactacystin, LLnL, MG132, 20 μM)
Experimental: ACHN and A-498 cells were incubated in serum-free media for 16 hr and treated with (a) compound 10 (100 μM), cycloheximide (CHX, 10 μg/ml), or compound 10 plus CHX for the indicated time, or (b) three different proteasome inhibitors (lactascystin, 20 μM; LLnL, 20 μM; MG132, 20 μM) for 6 h and followed by incubation of compound 10 (100 μM) for the indicated time. The density ratio of p21/actin is shown. Q refers to cells incubated in serum-free media only; P refers to cells incubated with PDGF only.
as §3

T1 sequence (P38936 whole entry): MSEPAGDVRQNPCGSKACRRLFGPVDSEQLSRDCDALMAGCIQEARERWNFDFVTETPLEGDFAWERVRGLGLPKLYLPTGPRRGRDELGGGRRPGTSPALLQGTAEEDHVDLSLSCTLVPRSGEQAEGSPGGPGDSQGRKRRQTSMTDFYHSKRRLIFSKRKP
T2 sequence (P38936 whole entry): as above

Structure (SMILES) | cell survival / cell viability (MTT assay) [1] | p57 protein levels [4] | p21 protein levels [5] | p27 protein levels [6] | binding to p21 [7] | apoptosis as measured by PARP cleavage [9] | cell survival / cell viability (MTT assay) [10] | also measured
Cc1ccccc1NC(=O)NC(CC(N)=O)c1ccc2c(c1)nc(-c1cccc(Oc3ccc(C(C)(C)C)cc3)c1)n2CCCN1CCC(C)CC1 (centres unmarked) [LLW39] | dose-dependent inhibition of cell survival; also recorded: decreasing cell viability | – | – | – | – | – | – | –
CCN(CC)CCCn1c(-c2cccc(Oc3ccc(C(C)(C)C)cc3)c2)nc2cc(C(CC(N)=O)NC(=O)Nc3ccccc3C)ccc21 (centres unmarked) [LLW33] | dose-dependent inhibition of cell survival; also recorded: decreasing cell viability | – | – | – | – | – | – | –
Cc1ccccc1NC(=O)NC(CC(N)=O)c1ccc2c(c1)nc(-c1c3ccccc3cc3ccccc13)n2CCCN1CCCCC1C (centres unmarked) [No. 10] | – | no affect | markedly and specifically inhibited | no affect | p21-binding | increased | dose-dependent inhibition of cell survival; also recorded: decreased; also recorded: decreasing cell viability | cell survival in combination with doxorubicin (MTT assay) [2]: synergistic decrease in cell survival; also recorded: synergistic anti-proliferative activity; ubiquitinylation of p21 [3]: causes ubiquitinylation of p21; also recorded: p21 protein is bound by ubiquitin; apoptosis in combination with doxorubicin (PARP immunoblot) [8]: increase in apoptosis; p21 stability [11]: decreases p21 stability via a proteasome-mediated pathway
Cc1ccc(C)c(-c2nc3cc(C(CC(N)=O)NC(=O)Nc4ccccc4C(C)(C)C)ccc3n2CCCN2CCCCC2C)c1 (centres unmarked) [No. 4] | – | no affect | markedly and specifically inhibited | no affect | p21-binding | increased | dose-dependent inhibition of cell survival; also recorded: decreased; also recorded: decreasing cell viability | –
Cc1ccccc1NC(=O)NC(CC(N)=O)c1ccc2c(c1)nc(-c1cccc(Oc3ccc(C(C)(C)C)cc3)c1)n2C1CCN(Cc2ccccc2)CC1 (centres unmarked) [LLW42] | dose-dependent inhibition of cell survival; also recorded: decreasing cell viability | – | – | – | – | – | – | –
Cc1ccccc1NC(=O)NC(CC(N)=O)c1ccc2c(c1)nc(-c1cccc(Oc3ccc(C(C)(C)C)cc3)c1)n2CC[C@@H]1CCCN2CCCC[C@H]12 (some centres unmarked) [LLW40] | dose-dependent inhibition of cell survival; also recorded: decreasing cell viability | – | – | – | – | – | – | –
Cc1ccccc1NC(=O)NC(CC(N)=O)c1ccc2c(c1)nc(-c1cccc(Oc3ccc(C(C)(C)C)cc3)c1)n2CCC1CCCCN1C (centres unmarked) [LLW38] | dose-dependent inhibition of cell survival; also recorded: decreasing cell viability | – | – | – | – | – | – | –
Cc1ccccc1NC(=O)NC(CC(N)=O)c1ccc2c(c1)nc(-c1cccc(Oc3ccc(C(C)(C)C)cc3)c1)n2CCCN1CCCCC1C (centres unmarked) [LLW15] | dose-dependent inhibition of cell survival; also recorded: decreasing cell viability | – | – | – | – | – | – | –
Cc1ccc(C)c(-c2nc3cc(C(CC(N)=O)NC(=O)Nc4ccccc4C)ccc3n2CCCN2CCCCC2C)c1 (centres unmarked) [No. 7] | – | no affect | markedly and specifically inhibited | no affect | p21-binding | increased | dose-dependent inhibition of cell survival; also recorded: decreased; also recorded: decreasing cell viability | –
Cc1ccccc1NC(=O)NC(CC(N)=O)c1ccc2c(c1)nc(-c1cccc(Oc3ccc(C(C)(C)C)cc3)c1)n2CCCN1CCCC1 (centres unmarked) [LLW36] | dose-dependent inhibition of cell survival; also recorded: decreasing cell viability | – | – | – | – | – | – | –
